# Activity calls are given as the source filed them. No cut-off for these calls is given here.
# What was measured:
# [1] = Drug distribution in spleen of mouse xenografted with human HCT-116 cells at 60 mg/kg, iv by LC-MS/MS analysis; details: in vivo
# [2] = Ocular toxicity in Sprague-Dawley rat retina damage model assessed as induction of retinal cell death at 20 mg/kg, iv administered for 2 consecutive days by TUNEL staining based analysis; type: organism-based; details: in vivo, 48 h, time 2 day
# [3] = Tmax in rat at 50 mg/kg, po measured upto 24 hrs by LC-MS/MS analysis; type: ADME, organism-based; details: in vivo
# [4] = Permeability of the compound at pH 7.4 by PAMPA; type: ADME; details: read-out: permeability
# HepG2 = experiment: Antiproliferative activity against human HepG2 assessed as reduction in cell viability incubated for 72 hrs by MTT assay; type: functional, cell-based; details: HepG2, 72 h
# [5] = AUC (0 to t) in rat at 50 mg/kg, po measured upto 24 hrs by LC-MS/MS analysis; type: ADME, organism-based; parameters: route oral, dose 50 mg/kg, time <=24; details: in vivo
# MCF7 = experiment: cells; details: Homo sapiens, MCF7, 72 h
# CYP2C19 = CYP2C19 (Homo sapiens, UniProt P33261); experiment: Inhibition of CYP2C19 in human liver microsomes at 10 uM using mephenytoin as substrate preincubated for 5 mins followed by NADPH addition and measured after 20 mins by LC-MS/MS analysis relative to control; details: probe mephenytoin
# [6] = Intrinsic aqueous solubility of the compound; type: physicochemical
# [7] = Apparent clearance during terminal phase in rat at 10 mg/kg, iv measured upto 24 hrs by LC-MS/MS analysis; type: ADME, organism-based; details: in vivo
# CYP1A2 = CYP1A2 (Homo sapiens, UniProt P05177); experiment: Inhibition of CYP1A2 in human liver microsomes at 10 uM using phenacetin as substrate preincubated for 5 mins followed by NADPH addition and measured after 20 mins by LC-MS/MS analysis relative to control; type: ADME; details: probe phenacetin, time 25 min
# MKN-28 = experiment: Antiproliferative activity against human MKN-28 assessed as reduction in cell viability incubated for 72 hrs by MTT assay; type: functional, cell-based; details: MKN-28, 72 h
# [8] = Drug distribution in blood of mouse xenografted with human HCT-116 cells at 60 mg/kg, iv by LC-MS/MS analysis; details: in vivo
# [9] = Distribution coefficient, logD of compound at pH 7.4; type: physicochemical; details: octanol/water
# CYP3A4 = CYP3A4 (Homo sapiens, UniProt P08684); experiment: Inhibition of CYP3A4 in human liver microsomes at 10 uM using midazolam as substrate preincubated for 5 mins followed by NADPH addition and measured after 20 mins by LC-MS/MS analysis relative to control; type: ADME; details: probe midazolam, time 25 min
# [10] = Drug distribution in liver of mouse xenografted with human HCT-116 cells at 60 mg/kg, iv by LC-MS/MS analysis; details: in vivo
# [11] = Metabolic stability in human liver microsomes assessed as parent compound remaining at 1 uM preincubated for 5 mins followed by NADPH addition and measured up to 120 mins by LC-MS/MS analysis; type: ADME, Microsome; details: 2 h, time <=125 min
# [12] = Apparent volume of distribution in rat at 50 mg/kg, po measured upto 24 hrs by LC-MS/MS analysis; type: ADME, organism-based; details: in vivo
# HCT-116 = experiment: cells; details: Homo sapiens, HCT-116, 72 h
# Description: Antiproliferative activity against human HCT-116 cells assessed as reduction in cell viability incubated for 72 hrs by MTT assay
# MDA-MB-231 = experiment: Antiproliferative activity against human MDA-MB-231 assessed as reduction in cell viability incubated for 72 hrs by MTT assay; type: functional, cell-based; details: MDA-MB-231, 72 h
# SK-BR-3 = experiment: Antiproliferative activity against human SK-BR-3 assessed as reduction in cell viability incubated for 72 hrs by MTT assay; type: functional, cell-based; details: SK-BR-3, 72 h
# [13] = Intrinsic clearance in human liver microsomes at 1 uM preincubated for 5 mins followed by NADPH addition and measured up to 120 mins by LC-MS/MS analysis; type: ADME, Microsome; details: 2 h, time <=125 min
# [14] = Drug concentration in tumor of mouse xenografted with human HCT-116 cells at 60 mg/kg, iv measured at 48 hrs by LC-MS/MS analysis; details: in vivo
# Endoplasmin = Endoplasmin (Homo sapiens, UniProt P14625); experiment: Displacement of FITC-geldanamycin from N-terminal GRP94 (unknown origin) after 30 mins by fluorescence polarization competitive binding assay
# [15] = Apparent clearance during terminal phase in rat at 50 mg/kg, po measured upto 24 hrs by LC-MS/MS analysis; type: ADME, organism-based; details: in vivo, read-out: CLz/F (converted)
# L02 = experiment: Cytotoxicity against human L02 cells assessed as reduction in cell viability incubated for 72 hrs by MTT assay; type: cell-based; details: L02, 72 h
# CYP2D6 = CYP2D6 (Homo sapiens, UniProt P10635); experiment: Inhibition of CYP2D6 in human liver microsomes at 10 uM using dextromethorphan as substrate preincubated for 5 mins followed by NADPH addition and measured after 20 mins by LC-MS/MS analysis relative to control; type: ADME; details: probe dextromethorphan, time 25 min
# [16] = molecular target: Heat shock protein HSP 90-alpha (Homo sapiens, UniProt P07900); experiment: Displacement of FITC-geldanamycin from N-terminal HSP90alpha (unknown origin) after 30 mins by fluorescence polarization competitive binding assay
# MDA-MB-468 = experiment: Antiproliferative activity against human MDA-MB-468 assessed as reduction in cell viability incubated for 72 hrs by MTT assay; type: functional, cell-based; details: MDA-MB-468, 72 h
# K562 = experiment: Antiproliferative activity against human K562 assessed as reduction in cell viability incubated for 72 hrs by MTT assay; type: functional, cell-based; details: K562, 72 h
# CYP2C9 = CYP2C9 (Homo sapiens, UniProt P11712); experiment: Inhibition of CYP2C9 in human liver microsomes at 10 uM using diclofenac as substrate preincubated for 5 mins followed by NADPH addition and measured after 20 mins by LC-MS/MS analysis relative to control; type: ADME; details: probe diclofenac, time 25 min
# [17] = Half-life in rat at 50 mg/kg, po measured upto 24 hrs by LC-MS/MS analysis; type: ADME, organism-based; details: in vivo
# [18] = AUC (0 to t) in rat at 10 mg/kg, iv measured upto 24 hrs by LC-MS/MS analysis; type: ADME, organism-based; parameters: route intravenous, dose 10 mg/kg, time <=24; details: in vivo
# [19] = Cmax in rat at 50 mg/kg, po measured upto 24 hrs by LC-MS/MS analysis; type: ADME, organism-based; parameters: route oral, dose 50 mg/kg, time <=24; details: in vivo
# MV4-11 = experiment: Antiproliferative activity against human MV4-11 assessed as reduction in cell viability incubated for 72 hrs by MTT assay; type: functional, cell-based; details: MV4-11, 72 h
# [20] = Oral bioavailability in rat at 50 mg/kg measured upto 24 hrs by LC-MS/MS analysis; type: ADME, organism-based; details: in vivo
# A549 = experiment: Antiproliferative activity against human A549 assessed as reduction in cell viability incubated for 72 hrs by MTT assay; type: functional, cell-based; details: A549, 72 h
# U2OS = experiment: Antiproliferative activity against human U2OS assessed as reduction in cell viability incubated for 72 hrs by MTT assay; type: functional, cell-based
# T47D = experiment: Antiproliferative activity against human T47D assessed as reduction in cell viability incubated for 72 hrs by MTT assay; type: functional, cell-based
# [21] = Half-life in rat at 10 mg/kg, iv measured upto 24 hrs by LC-MS/MS analysis; type: ADME, organism-based; details: in vivo
# BT-474 = experiment: Antiproliferative activity against human BT-474 assessed as reduction in cell viability incubated for 72 hrs by MTT assay; type: functional, cell-based; details: BT-474, 72 h
# [22] = Half life in human liver microsomes at 1 uM preincubated for 5 mins followed by NADPH addition and measured up to 120 mins by LC-MS/MS analysis; type: ADME, Microsome; details: 2 h, time <=125 min
# [23] = Apparent volume of distribution in rat at 10 mg/kg, iv measured upto 24 hrs by LC-MS/MS analysis; type: ADME, organism-based; details: in vivo, read-out: Vz
# [24] = Ocular toxicity in Sprague-Dawley rat retina damage model assessed as induction of retinal cell death at 10 mg/kg, iv administered for 2 consecutive days by TUNEL staining based analysis; type: organism-based; details: in vivo, 48 h, time 2 day
# Rattus norvegicus [25] = experiment: Ex vivo inhibition of HSP90 in Sprague-Dawley rat assessed as up regulation of HSP70 expression in retina at 10 mg/kg, iv administered for 2 consecutive days and measured 24 hrs post last dose by immunohistochemistry analysis; type: functional, organism-based; details: time 3.0 day
# Rattus norvegicus [26] = experiment: Ex vivo inhibition of HSP90 in Sprague-Dawley rat assessed as up regulation of HSP70 expression in retina at 10 mg/kg, iv administered for 2 consecutive days and measured 24 hrs post last dose by Western blot analysis; type: functional, organism-based
# Chain of CYP2C19 (P33261 whole entry): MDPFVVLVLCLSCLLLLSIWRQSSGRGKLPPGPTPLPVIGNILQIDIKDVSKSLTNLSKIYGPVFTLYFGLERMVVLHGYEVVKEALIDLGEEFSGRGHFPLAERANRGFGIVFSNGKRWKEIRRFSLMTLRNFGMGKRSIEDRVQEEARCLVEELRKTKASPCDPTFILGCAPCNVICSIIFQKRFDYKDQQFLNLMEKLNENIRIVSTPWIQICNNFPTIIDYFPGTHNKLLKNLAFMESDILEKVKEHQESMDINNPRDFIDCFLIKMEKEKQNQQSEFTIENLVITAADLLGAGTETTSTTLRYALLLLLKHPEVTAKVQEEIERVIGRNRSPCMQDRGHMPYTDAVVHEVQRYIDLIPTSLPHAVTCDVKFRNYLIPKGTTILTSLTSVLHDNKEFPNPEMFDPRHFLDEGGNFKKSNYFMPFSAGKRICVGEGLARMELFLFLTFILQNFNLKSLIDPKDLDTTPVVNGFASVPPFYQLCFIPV
# Chain of CYP3A4 (P08684 whole entry): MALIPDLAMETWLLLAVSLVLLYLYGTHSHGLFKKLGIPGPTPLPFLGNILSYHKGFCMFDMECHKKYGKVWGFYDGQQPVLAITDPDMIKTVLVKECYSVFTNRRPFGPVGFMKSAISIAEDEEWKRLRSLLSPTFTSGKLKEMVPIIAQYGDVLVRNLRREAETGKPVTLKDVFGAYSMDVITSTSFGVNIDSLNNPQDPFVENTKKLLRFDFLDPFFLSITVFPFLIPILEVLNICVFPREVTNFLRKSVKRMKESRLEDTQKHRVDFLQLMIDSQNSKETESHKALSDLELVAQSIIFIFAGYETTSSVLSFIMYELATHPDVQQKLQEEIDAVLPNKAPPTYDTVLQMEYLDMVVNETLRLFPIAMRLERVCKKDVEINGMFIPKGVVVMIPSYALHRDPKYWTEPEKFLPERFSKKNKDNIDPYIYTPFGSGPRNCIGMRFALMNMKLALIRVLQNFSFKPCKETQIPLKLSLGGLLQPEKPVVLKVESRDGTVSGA
# Chain of CYP1A2 (P05177 whole entry): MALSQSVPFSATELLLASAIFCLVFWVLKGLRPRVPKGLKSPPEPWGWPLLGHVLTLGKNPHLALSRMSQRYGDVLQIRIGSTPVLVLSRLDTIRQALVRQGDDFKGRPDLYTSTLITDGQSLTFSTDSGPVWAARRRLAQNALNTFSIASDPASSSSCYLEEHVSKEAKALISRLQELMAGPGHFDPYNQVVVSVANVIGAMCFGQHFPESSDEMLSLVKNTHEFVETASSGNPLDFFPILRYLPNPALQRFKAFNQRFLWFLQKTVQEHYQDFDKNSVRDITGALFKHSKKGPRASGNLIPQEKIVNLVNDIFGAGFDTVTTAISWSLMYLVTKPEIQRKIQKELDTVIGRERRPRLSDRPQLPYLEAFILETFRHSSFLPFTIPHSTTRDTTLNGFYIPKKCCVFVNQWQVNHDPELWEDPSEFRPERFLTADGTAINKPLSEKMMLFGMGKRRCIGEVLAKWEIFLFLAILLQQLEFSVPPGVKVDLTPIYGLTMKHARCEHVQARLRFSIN
# Chain of CYP2D6 (P10635 whole entry): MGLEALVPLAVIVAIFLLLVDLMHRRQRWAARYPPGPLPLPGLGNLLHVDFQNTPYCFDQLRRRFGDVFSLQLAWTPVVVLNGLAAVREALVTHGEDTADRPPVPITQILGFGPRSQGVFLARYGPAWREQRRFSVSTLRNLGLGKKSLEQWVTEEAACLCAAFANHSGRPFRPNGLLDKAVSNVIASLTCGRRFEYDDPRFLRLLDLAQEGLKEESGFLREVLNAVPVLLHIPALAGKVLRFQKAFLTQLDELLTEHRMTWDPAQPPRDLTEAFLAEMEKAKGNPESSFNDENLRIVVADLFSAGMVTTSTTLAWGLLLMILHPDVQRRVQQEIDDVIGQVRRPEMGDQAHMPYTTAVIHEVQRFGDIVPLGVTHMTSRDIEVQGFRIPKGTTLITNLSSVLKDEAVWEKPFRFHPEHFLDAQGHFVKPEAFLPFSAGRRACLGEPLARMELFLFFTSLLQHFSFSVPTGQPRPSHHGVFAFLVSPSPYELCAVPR
# Chain of Endoplasmin (P14625 whole entry): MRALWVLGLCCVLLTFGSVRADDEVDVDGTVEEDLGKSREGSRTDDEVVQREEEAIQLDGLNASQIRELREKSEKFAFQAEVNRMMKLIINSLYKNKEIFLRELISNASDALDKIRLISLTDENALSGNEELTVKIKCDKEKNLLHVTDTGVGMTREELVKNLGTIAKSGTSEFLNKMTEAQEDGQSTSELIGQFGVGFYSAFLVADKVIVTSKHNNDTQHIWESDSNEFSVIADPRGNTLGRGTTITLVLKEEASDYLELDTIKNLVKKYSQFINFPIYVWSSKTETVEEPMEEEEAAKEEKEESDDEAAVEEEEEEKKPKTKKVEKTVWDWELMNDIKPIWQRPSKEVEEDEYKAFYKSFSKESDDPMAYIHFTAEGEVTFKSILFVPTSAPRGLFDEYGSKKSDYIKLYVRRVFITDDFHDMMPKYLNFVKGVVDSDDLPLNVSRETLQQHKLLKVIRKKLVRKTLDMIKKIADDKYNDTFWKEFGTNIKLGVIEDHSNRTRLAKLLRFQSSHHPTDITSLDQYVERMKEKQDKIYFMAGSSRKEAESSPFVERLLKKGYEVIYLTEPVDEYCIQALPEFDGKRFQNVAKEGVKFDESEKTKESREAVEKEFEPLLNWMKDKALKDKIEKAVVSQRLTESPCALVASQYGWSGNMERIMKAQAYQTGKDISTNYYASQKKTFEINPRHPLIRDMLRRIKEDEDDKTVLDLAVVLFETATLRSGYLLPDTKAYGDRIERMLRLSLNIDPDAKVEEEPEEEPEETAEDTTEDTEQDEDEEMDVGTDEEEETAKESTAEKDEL
# Chain of CYP2C9 (P11712 whole entry): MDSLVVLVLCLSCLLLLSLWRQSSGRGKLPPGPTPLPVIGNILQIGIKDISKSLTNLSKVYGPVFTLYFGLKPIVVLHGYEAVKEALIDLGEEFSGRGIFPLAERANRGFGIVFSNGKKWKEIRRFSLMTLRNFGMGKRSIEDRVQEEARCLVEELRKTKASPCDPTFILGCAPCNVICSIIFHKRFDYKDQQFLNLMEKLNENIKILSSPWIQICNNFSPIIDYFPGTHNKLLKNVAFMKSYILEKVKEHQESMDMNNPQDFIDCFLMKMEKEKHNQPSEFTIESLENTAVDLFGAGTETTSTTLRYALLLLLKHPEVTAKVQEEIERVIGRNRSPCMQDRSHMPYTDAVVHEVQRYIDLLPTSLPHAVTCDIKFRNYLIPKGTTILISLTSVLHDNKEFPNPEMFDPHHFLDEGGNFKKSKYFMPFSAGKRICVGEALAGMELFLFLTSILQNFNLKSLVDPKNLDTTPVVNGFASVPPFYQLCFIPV
compound,measurement,setting,value
CCNc1nc(OCCOC)nc2c1CN(C(=O)c1cc(C(C)C)c(O)cc1O)CC2,Drug uptake,[1],Active
same,Activity,[2],Non-Toxic
same,Tmax,[3],0.5 h
same,Papp,[4],715 nm/s
same,IC50,HepG2,0.153 µM
same,AUC(0-t) at 24 h,[5],0.409 µg·h/mL
same,IC50,MCF7,0.1 µM
same,"inhibition at 20 min, 10 µM",CYP2C19,21%
same,solubility,[6],0.192 mg/mL
same,CLz/F,[7],5.25 L/h/kg
same,"inhibition at 20 min, 10 µM",CYP1A2,8%
same,IC50,MKN-28,0.434 µM
same,Drug uptake,[8],Active
same,logD,[9],2.32
same,"inhibition at 20 min, 10 µM",CYP3A4,22%
same,Drug uptake,[10],Active
same,Stabilty,[11],90.4%
same,Vz,[12],1620.19 L/kg
same,IC50,HCT-116,0.14 µM
same,IC50,MDA-MB-231,0.119 µM
same,IC50,SK-BR-3,0.243 µM
same,CLint,[13],0.267 L/h/kg
same,Ct,[14],> 3 uM/L
same,IC50,Endoplasmin,0.729 µM
same,CL/F,[15],124 L/h/kg
same,IC50,L02,34 µM
same,"inhibition at 20 min, 10 µM",CYP2D6,48%
same,IC50,[16],0.028 µM
same,IC50,MDA-MB-468,0.135 µM
same,IC50,K562,0.119 µM
same,"inhibition at 20 min, 10 µM",CYP2C9,36%
same,half-life,[17],9.4 h
same,AUC(0-t) at 24 h,[18],1.93 µg·h/mL
same,Cmax,[19],0.0726 µg/mL
same,IC50,MV4-11,0.027 µM
same,bioavailability,[20],4.23%
same,IC50,A549,0.194 µM
same,IC50,U2OS,0.052 µM
same,IC50,T47D,0.195 µM
same,half-life,[21],3.95 h
same,IC50,BT-474,0.095 µM
same,t1/2,[22],3.53 h
same,Vd,[23],29.6 L/kg
CCNC(=O)c1noc(-c2cc(C(C)C)c(O)cc2O)c1-c1ccc(CN2CCOCC2)cc1 [LUMINESPIB],Activity,[24],Toxic
same,inhibition,Rattus norvegicus [25],Active
same,inhibition,Rattus norvegicus [26],Active

# From ChEMBL document CHEMBL4706476, “Novel Tetrahydropyrido[4,3-d]pyrimidines as Potent Inhibitors of Chaperone Heat Shock Protein 90” (J Med Chem, 2016)
